Results on eight compounds are retold here after patent publication US20140135270A1, “MACROCYCLIC COMPOUNDS FOR INHIBITION OF INHIBITORS OF APOPTOSIS” (Ensemble Therapeutics Corp., priority 2012, published 2014).

For experiment [1], the target named is T1, His-BIR3 (241-356, XIAP) (Homo sapiens, UniProt P98170).
T1 construct: additions of His-BIR3 (241-356, XIAP), fluorescein labeled SMAC peptide
The experiment is described as follows: XIAP-BIR3/SMAC Homogeneous Time Resolved Fluorescence (HTRF) Assay. In kind it is binding. As to conditions: fluorescein labeled SMAC peptide. Background: In TR-FRET formats the signal depends on donor and acceptor labels being close together.

Experiment [2] concerns the target T2, His-BIR2-3 (125-356, C202A/C213G, XIAP) (Homo sapiens, UniProt P98170, C202A/C213G).
T2 construct: additions of His-BIR2-3 (125-356, C202A/C213G, XIAP), fluorescein labeled dimeric SMAC peptide
The experiment is described as follows: XIAP-BIR2-3 Dimeric SMAC Peptide Homogeneous Time Resolved Fluorescence (HTRF) Assay. The format is binding. The settings on record: fluorescein labeled dimeric SMAC peptide.

A word on the IC50: it is the concentration that gives 50% inhibition.

T1 sequence (P98170 241-356): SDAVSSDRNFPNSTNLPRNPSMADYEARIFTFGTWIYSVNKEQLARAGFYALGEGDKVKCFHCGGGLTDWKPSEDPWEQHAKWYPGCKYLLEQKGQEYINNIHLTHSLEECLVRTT
T2 sequence (P98170 125-356 C202A/C213G): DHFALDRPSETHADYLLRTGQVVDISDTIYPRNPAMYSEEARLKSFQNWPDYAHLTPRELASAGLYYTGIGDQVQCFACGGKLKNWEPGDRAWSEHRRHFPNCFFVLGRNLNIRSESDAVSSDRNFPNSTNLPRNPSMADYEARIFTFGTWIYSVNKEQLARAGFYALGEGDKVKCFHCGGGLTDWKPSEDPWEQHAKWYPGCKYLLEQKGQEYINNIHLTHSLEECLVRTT

Turning to `CN[C@@H](C)C(=O)N[C@H](C(=O)N1C[C@@H]2C[C@H]1C(=O)N[C@@H](Cc1ccc3ccccc3c1)C(=O)N[C@H](C(=O)O)Cc1ccc(cc1)CCCCO[C@H]1C[C@@H](C(=O)N[C@@H](Cc3ccc4ccccc4c3)C(=O)N[C@H](C(=O)NS(=O)(=O)C3CC3)Cc3ccc(cc3)OCc3cn2nn3)N(C(=O)[C@@H](NC(=O)[C@H](C)NC)C(C)(C)C)C1)C(C)(C)C` [Example 127], the values for the IC50 in experiment [1] and in experiment [2] were 7.5 nM and 7.1 nM, respectively.

Turning to `CN[C@@H](C)C(=O)N[C@@H](CC(=O)O)C(=O)N1C[C@@H]2C[C@H]1C(=O)N[C@@H](Cc1ccc3ccccc3c1)C(=O)N[C@H](C(=O)O)CCC(=O)N[C@H]1C[C@@H](C(=O)N[C@@H](Cc3ccc4ccccc4c3)C(=O)N[C@H](C(=O)O)Cc3ccc(cc3)OC/C=C/CO2)N(C(=O)[C@@H](NC(=O)[C@H](C)NC)C(C)(C)C)C1` [Example 58], the values for the IC50 in experiment [1] and in experiment [2] were 757 nM and 138 nM, respectively.

Take `CN[C@@H](C)C(=O)N[C@H](C(=O)N1C[C@@H]2C[C@H]1C(=O)NC(Cc1ccc3ccccc3c1)C(=O)N[C@H](C(=O)NS(=O)(=O)CCCO)Cc1ccc(cc1)OC/C=C/C[C@H]1C[C@@H](C(=O)N[C@@H](Cc3ccc4ccccc4c3)C(=O)N[C@H](C(=O)O)Cc3ccc(cc3)OCc3cn2nn3)N(C(=O)[C@@H](NC(=O)[C@H](C)NC)C(C)(C)C)C1)C(C)(C)C` (stereo partly shown) [Example 94]: the IC50 in experiment [1] came out at 2.1 nM; in experiment [2], 0.6 nM.

On to `CN[C@@H](C)C(=O)N[C@H](C(=O)N1C[C@@H]2C[C@H]1C(=O)N[C@@H](Cc1ccc3ccccc3c1)C(=O)N[C@H](C(=O)O)Cc1ccc(cc1)OC/C=C/C[C@H]1C[C@@H](C(=O)N[C@@H](Cc3ccc4ccccc4c3)C(=O)N[C@H](C(=O)NS(=O)(=O)C3CC3)Cc3ccc(cc3)OCc3cn2nn3)N(C(=O)[C@@H](NC(=O)[C@H](C)NC)C(C)(C)C)C1)C(C)(C)C` [Example 86], for which the IC50 is 1.7 nM in experiment [1] and 1.1 nM in experiment [2].

On to `CN[C@@H](C)C(=O)N[C@@H](CC1CCCCC1)C(=O)N1C[C@@H]2C[C@H]1C(=O)N[C@@H](Cc1ccc3ccccc3c1)C(=O)N[C@H](C(=O)O)Cc1ccc(cc1)C(=O)N[C@H]1C[C@@H](C(=O)N[C@@H](Cc3ccc4ccccc4c3)C(=O)N[C@H](C(=O)O)Cc3ccc(cc3)OC/C=C/CO2)N(C(=O)[C@@H](NC(=O)[C@H](C)NC)C(C)(C)C)C1` [Example 69], for which the figures for the IC50 in experiment [1] and in experiment [2] were 16.4 nM and 3.2 nM, respectively.

For `CN[C@@H](C)C(=O)N[C@H](C(=O)N1C[C@@H]2C[C@H]1C(=O)N[C@@H](Cc1ccc3ccccc3c1)C(=O)N[C@H](C(=O)NS(=O)(=O)C1CC1)Cc1ccc(cc1)OCc1cn(nn1)[C@H]1C[C@@H](C(=O)N[C@@H](Cc3ccc4ccccc4c3)C(=O)N[C@H](C(=O)O)Cc3ccc(cc3)OC/C=C/CO2)N(C(=O)[C@@H](NC(=O)[C@H](C)NC)C(C)(C)C)C1)C1CCNCC1` [Example 110], the figures for the IC50 in experiment [1] and in experiment [2] were 10 nM and 1.5 nM, respectively.

Consider `CN[C@@H](C)C(=O)N[C@H](C(=O)N1CCC2[C@H]1C(=O)N[C@@H](Cc1ccc3ccccc3c1)C(=O)N[C@H](C(=O)O)Cc1ccc(cc1)OC/C=C/CO[C@H]1C[C@@H](C(=O)N[C@@H](Cc3ccc4ccccc4c3)C(=O)N[C@H](C(=O)O)Cc3ccc(cc3)OCc3cn2nn3)N(C(=O)[C@@H](NC(=O)[C@H](C)NC)C(C)(C)C)C1)C(C)(C)C` (stereo partly shown) [Example 13], for which the concentration for half-maximal inhibition (IC50) in experiment [1] amounted to 5.4 nM; in experiment [2] it was 12.4 nM.

As to `CN[C@@H](C)C(=O)N[C@H](C(=O)N1C[C@@H]2C[C@H]1C(=O)N[C@@H](Cc1ccc3ccccc3c1)C(=O)N[C@H](C(=O)O)Cc1ccc(cc1)OC/C=C/CO[C@H]1C[C@@H](C(=O)N[C@@H](Cc3ccc4ccccc4c3)C(=O)N[C@H](C(=O)O)Cc3ccc(cc3)C(=O)N2)N(C(=O)[C@@H](NC(=O)[C@H](C)N(C)C(C)=O)C(C)(C)C)C1)C(C)(C)C` [Example 73], the results for the IC50 in experiment [1] and in experiment [2] were 29.3 nM and 440 nM, respectively.
